Values quoted from earlier work in patent US10543277B2, “Formulation of curcumin with enhanced bioavailability of curcumin and method of preparation and treatment thereof” (ARJUNA NATURAL PRIVATE LIMITED, priority 2005, dated 2020).

Columns and labels:
[1] = system: oral premalignancy; settings: for responded to maintenance therapy or continued to have stable lesions / subjects who responded to maintenance therapy or continued to have stable lesions: maintenance phase; for subjects who responded to maintenance therapy or continued to have stable lesions: 53 evaluable
[2] = system: OPLs
[3] = system: LOX (lipoxygenase) pathway; settings: 10 μM
[4] = system: COX pathway; settings: 10 μM
[5] = among the 24 13-cRA subjects, 1-2 mg/kg/day for three months

inhibition of conversion of arachidonic acid to 5-hydroxyeicosatetraenoic acid [3] [%]	inhibition of conversion of arachidonic acid to 8-hydroxyeicosatetraenoic acid [3] [%]	Structure (SMILES)	rate of response at the conclusion of induction ([1]; high-dose induction therapy) [%]	rate of stable disease at the conclusion of induction ([1]; high-dose induction therapy) [%]	responded to maintenance therapy or continued to have stable lesions [1] [%]	subjects who responded to maintenance therapy or continued to have stable lesions [1]	subjects with complete responses [2, 5]	subjects with partial responses [2, 5]	relapse after end of therapy ([2]; in vivo)	subjects with intolerable conjunctivitis and hypertriglyceridemia ([2]; receiving 2 mg/kg)	inhibition of metabolism of arachidonic acid to PGD2 [4] [%]	inhibition of metabolism of arachidonic acid to PGE2 [4] [%]	inhibition of metabolism of arachidonic acid to PGF2α [4] [%]
		CC1=C(/C=C/C(C)=C/C=C/C(C)=C\C(=O)O)C(C)(C)CCC1 [13-cRA, 13-cis-retinoic acid]	55	35	92	22	2	14	2-3 months	2			
60	51	COc1cc(/C=C/C(=O)CC(=O)/C=C/c2ccc(O)c(OC)c2)ccc1O [Curcumin, 1,7-bis(4-hydroxy-3-methoxyphenyl)-1,6-heptadiene-3,5-dione]									73	70	64
		CC1=C(/C=C/C(C)=C/C=C/C(C)=C/C=C/C=C(C)/C=C/C=C(C)/C=C/C2=C(C)CCCC2(C)C)C(C)(C)CCC1 [β-carotene]			45	13							
